Test results as given in patent US20220062240A1, “METHODS OF TREATING CANCER USING A CLK INHIBITOR” (BioSplice Therapeutics, Inc., priority 2018, published 2022).
Where two headings read alike, the source gives them in different places.

Key:
[1] = test system: haematopoietic & lymphoid tumors (13 cell lines); assay: CellTiter-Glo Viability Assay, haematopoietic & lymphoid tumors; type: cell-based; conditions: Homo sapiens, inhibition of cancer cell proliferation
[2] = test system: prostate cancer (5 cell lines); assay: CellTiter-Glo Viability Assay, prostate cancer; type: cell-based; conditions: Homo sapiens
[3] = test system: colorectal cancer (6 cell lines); assay: CellTiter-Glo Viability Assay, colorectal cancer; type: cell-based; conditions: Homo sapiens, inhibition of cancer cell proliferation
[4] = test system: DU4475; assay: CellTiter-Glo Viability Assay, breast cancer; type: cell-based; conditions: Homo sapiens, DU-4475, 96 h; DU4475, breast cancer, four days; read-out: EC50
[5] = test system: T47D; assay: CellTiter-Glo Viability Assay, breast cancer; type: cell-based; conditions: Homo sapiens, 96 h, breast cancer, four days, read-out: EC50
[6] = test system: MDA-MB-231-Luc; assay: CellTiter-Glo Viability Assay, breast cancer; type: cell-based; conditions: Homo sapiens, 96 h; MDA-MB-231-Luc, breast cancer, four days; read-out: EC50
[7] = test system: MCF7; assay: CellTiter-Glo Viability Assay, breast cancer; type: cell-based; conditions: Homo sapiens, 96 h; MCF7, breast cancer, four days; read-out: EC50
[8] = test system: HCC1599; assay: CellTiter-Glo Viability Assay, breast cancer; type: cell-based; conditions: Homo sapiens, 96 h; HCC1599, breast cancer, four days; read-out: EC50
[9] = test system: CAMA1; assay: CellTiter-Glo Viability Assay, breast cancer; type: cell-based; conditions: Homo sapiens, CAMA-1, 96 h; CAMA1, breast cancer, four days; read-out: EC50
[10] = test system: ZR-75-1; assay: CellTiter-Glo Viability Assay, breast cancer; type: cell-based; conditions: Homo sapiens, 96 h; ZR-75-1, breast cancer, four days; read-out: EC50
[11] = test system: BT-549; assay: CellTiter-Glo Viability Assay, breast cancer; type: cell-based; conditions: Homo sapiens, 96 h; BT-549, breast cancer, four days; read-out: EC50
[12] = test system: ovarian cancer (4 cell lines); assay: CellTiter-Glo Viability Assay, ovarian cancer; type: cell-based; conditions: Homo sapiens, inhibition of cancer cell proliferation
[13] = test system: all 50 cell lines; assay: CellTiter-Glo Viability Assay, average across all cell lines; type: cell-based; conditions: Homo sapiens; across all 50 cell lines; read-out: average EC50 for inhibition of cancer cell proliferation
Outline: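 Human cancer cell lines from breast, colorectal, haematopoietic/lymphoid, liver, lung, ovarian, pancreatic and prostate tumours were seeded at 300-3,000 cells/well and exposed to compound in duplicate for four days at 37° C, 5% CO2. Viable cells were measured by ATP luminescence; EC50 values came from dose-response curves.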

[14] = biological target: T1, CLK2 (Homo sapiens, UniProt P49760); assay: CLK2 kinase activity assay (Z-lyte, Ser/Thr 6 peptide); type: biochemical; conditions: recombinant CLK2 kinase, ATP 60 μM; read-out: EC50
T1 construct: purchased Thermo Fisher (Life Technologies), Z'-LYTE Kinase Assay Kits
T1 sequence (P49760 whole entry): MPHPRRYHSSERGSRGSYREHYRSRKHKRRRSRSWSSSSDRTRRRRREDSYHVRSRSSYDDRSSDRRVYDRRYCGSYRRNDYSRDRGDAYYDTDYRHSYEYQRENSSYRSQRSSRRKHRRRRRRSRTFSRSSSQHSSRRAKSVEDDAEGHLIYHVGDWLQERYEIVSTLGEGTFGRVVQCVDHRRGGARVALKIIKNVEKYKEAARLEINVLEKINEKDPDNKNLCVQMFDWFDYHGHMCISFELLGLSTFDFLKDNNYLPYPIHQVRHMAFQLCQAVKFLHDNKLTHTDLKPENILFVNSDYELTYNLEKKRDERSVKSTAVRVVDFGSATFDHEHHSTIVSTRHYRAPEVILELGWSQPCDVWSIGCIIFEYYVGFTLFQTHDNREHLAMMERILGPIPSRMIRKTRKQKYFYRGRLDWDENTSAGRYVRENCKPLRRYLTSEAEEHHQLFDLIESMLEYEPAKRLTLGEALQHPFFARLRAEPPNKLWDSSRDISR
Description: All reactions were performed in duplicate.

[15] = test system: liver cancer (3 cell lines); assay: CellTiter-Glo Viability Assay, liver cancer; type: cell-based; conditions: Homo sapiens, inhibition of cancer cell proliferation
[16] = test system: pancreatic cancer (8 cell lines); assay: CellTiter-Glo Viability Assay, pancreatic cancer; type: cell-based; conditions: Homo sapiens, inhibition of cancer cell proliferation
[17] = test system: lung cancer (4 cell lines); assay: CellTiter-Glo Viability Assay, lung cancer; type: cell-based; conditions: Homo sapiens, inhibition of cancer cell proliferation
[18] = biological target: CLK3 (Homo sapiens, UniProt P49761); assay: CLK3 kinase activity assay (Z-lyte, Ser/Thr 18 peptide)
CLK3, sequence (P49761 whole entry): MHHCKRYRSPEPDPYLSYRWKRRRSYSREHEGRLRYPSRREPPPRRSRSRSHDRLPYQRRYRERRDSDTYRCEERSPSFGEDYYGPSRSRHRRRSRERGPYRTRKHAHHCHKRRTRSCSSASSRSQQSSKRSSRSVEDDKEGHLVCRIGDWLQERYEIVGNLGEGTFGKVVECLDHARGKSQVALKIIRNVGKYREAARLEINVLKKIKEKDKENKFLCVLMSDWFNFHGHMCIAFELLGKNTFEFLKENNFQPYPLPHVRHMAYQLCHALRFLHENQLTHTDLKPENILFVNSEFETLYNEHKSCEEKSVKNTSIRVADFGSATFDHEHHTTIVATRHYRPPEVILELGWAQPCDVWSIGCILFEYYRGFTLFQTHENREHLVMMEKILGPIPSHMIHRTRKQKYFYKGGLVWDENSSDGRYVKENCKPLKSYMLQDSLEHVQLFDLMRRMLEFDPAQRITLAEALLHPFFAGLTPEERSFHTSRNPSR

O=C(Nc1c[nH]nc1-c1nc2c(-c3cccc(F)c3)cncc2[nH]1)c1cccnc1 [Compound 91]
EC50 ([1]; DND41, DND-41 cell line, read-out: Haematopoietic & Lymphoid tumors, EC50 (μM) DND-41): 0.014 µM
EC50 ([1]; MV4-11, MV-4-11 cell line, read-out: Haematopoietic & Lymphoid tumors, EC50 (μM) MV-4-11): 0.007 µM
EC50 ([1]; Rec1, REC-1 cell line, read-out: Haematopoietic & Lymphoid tumors, EC50 (μM) REC-1): 0.024 µM
EC50 ([1]; SU-DHL-4, SUDHL4 cell line, read-out: Haematopoietic & Lymphoid tumors, EC50 (μM) SUDHL4): 0.009 µM
EC50 ([1]; HL-60 cell line, read-out: Haematopoietic & Lymphoid tumors, EC50 (μM) HL-60): 0.034 µM
EC50 ([1]; JM1 cell line, read-out: Haematopoietic & Lymphoid tumors, EC50 (μM) JM1): 0.01 µM
EC50 ([1]; JURKAT, Clone E6-1 cell line, read-out: Haematopoietic & Lymphoid tumors, EC50 (μM) JURKAT, Clone E6-1): 0.031 µM
EC50 ([1]; JeKo-1 cell line, read-out: Haematopoietic & Lymphoid tumors, EC50 (μM) JeKo-1): 0.008 µM
EC50 ([1]; KASUMI-1 cell line, read-out: Haematopoietic & Lymphoid tumors, EC50 (μM) KASUMI-1): 0.01 µM
EC50 ([1]; Loucy cell line, read-out: Haematopoietic & Lymphoid tumors, EC50 (μM) Loucy): 0.013 µM
EC50 ([1]; MOLT-4 cell line, read-out: Haematopoietic & Lymphoid tumors, EC50 (μM) MOLT-4): 0.045 µM
EC50 ([1]; TF-1 cell line, read-out: Haematopoietic & Lymphoid tumors, EC50 (μM) TF-1): 0.008 µM
EC50 ([1]; TOLEDO cell line, read-out: Haematopoietic & Lymphoid tumors, EC50 (μM) TOLEDO): 0.019 µM
EC50 ([2]; DU-145, read-out: Prostate cancer EC50 Du-145): 0.091 µM
EC50 ([2]; PC-3, PC3 cell line, inhibition of cancer cell proliferation, read-out: Prostate cancer EC50 PC3): 0.031 µM
EC50 ([2]; 22Rv1 cell line, inhibition of cancer cell proliferation, read-out: Prostate cancer EC50 22Rv1): 0.021 µM
EC50 ([2]; LNCap clone FGC cell line, inhibition of cancer cell proliferation, read-out: Prostate cancer EC50 LNCap clone FGC): 0.05 µM
EC50 ([2]; VCaP (Sigma) cell line, inhibition of cancer cell proliferation, read-out: Prostate cancer EC50 VCaP (Sigma)): 0.009 µM
EC50 ([3]; HCT-116, HCT116 cell line, read-out: Colorectal cancer, EC50 (μM) HCT116): 0.05 µM
EC50 ([3]; HT-29, HT29 cell line, read-out: Colorectal cancer, EC50 (μM) HT29): 0.211 µM
EC50 ([3]; SW-620, SW620 cell line, read-out: Colorectal cancer, EC50 (μM) SW620): 0.044 µM
EC50 ([3]; DLD-1 cell line, read-out: Colorectal cancer, EC50 (μM) DLD-1): 0.095 µM
EC50 ([3]; SW48 cell line, read-out: Colorectal cancer, EC50 (μM) SW48): 0.082 µM
EC50 ([3]; SW480 cell line, read-out: Colorectal cancer, EC50 (μM) SW480): 0.078 µM
EC50 [4]: 0.046 µM
EC50 [5]: 0.402 µM
EC50 [6]: 0.118 µM
EC50 [7]: 0.336 µM
EC50 [8]: 0.008 µM
EC50 [9]: 0.088 µM
EC50 [10]: 0.113 µM
EC50 [11]: 0.024 µM
EC50 ([12]; PA-1, PA1 cell line, read-out: Ovarian cancer, EC50 (μM) PA1): 0.057 µM
EC50 ([12]; TOV112D, TOV-112D cell line, read-out: Ovarian cancer, EC50 (μM) TOV-112D): 0.102 µM
EC50 ([12]; OV-90 cell line, read-out: Ovarian cancer, EC50 (μM) OV-90): 0.255 µM
EC50 ([12]; OVCAR-3 cell line, read-out: Ovarian cancer, EC50 (μM) OVCAR-3): 0.025 µM
EC50 [13]: 0.099 µM
EC50 [14]: 0.0031 µM
EC50 ([15]; SNU-398, SNU398 cell line, read-out: Liver cancer, EC50 SNU398): 0.038 µM
EC50 ([15]; HEPG2 cell line, read-out: Liver cancer, EC50 HEPG2): 0.375 µM
EC50 ([15]; PLC/PRF/5 cell line, read-out: Liver cancer, EC50 PLC/PRF/5): 0.444 µM
EC50 ([16]; BXPC-3, BxPC3 cell line, read-out: Pancreatic cancer, EC50 BxPC3): 0.022 µM
EC50 ([16]; CAPAN-1, Capan1 cell line, read-out: Pancreatic cancer, EC50 Capan1): 0.103 µM
EC50 ([16]; Capan-2, Capan2 cell line, read-out: Pancreatic cancer, EC50 Capan2): 0.074 µM
EC50 ([16]; MIA PaCa-2 cell line, read-out: Pancreatic cancer, EC50 MIA PaCa-2): 0.04 µM
EC50 ([16]; PANC 05.04 cell line, read-out: Pancreatic cancer, EC50 PANC 05.04): 0.06 µM
EC50 ([16]; PANC-1 cell line, read-out: Pancreatic cancer, EC50 PANC-1): 0.413 µM
EC50 ([16]; UPAFII cell line, read-out: Pancreatic cancer, EC50 UPAFII): 0.136 µM
EC50 ([17]; A-427, A427 cell line, read-out: Lung cancer, EC50 (μM) A427): 0.064 µM
EC50 ([17]; HCC78, HCC-78 cell line, read-out: Lung cancer, EC50 (μM) HCC-78): 0.1 µM
EC50 ([17]; NCI-H460 cell line, read-out: Lung cancer, EC50 (μM) NCI-H460): 0.476 µM
EC50 ([17]; NCI-H522 cell line, read-out: Lung cancer, EC50 (μM) NCI-H522): 0.06 µM
EC50 [18]: 0.0225 µM
